Test results as given in patent publication US20120165306A1, “PYRAZINYLPYRIDINES USEFUL FOR THE TREATMENT OF PROLIFERATIVE DISEASES” (priority 2009, published 2012).

Molecular target: Cdk9/cyclinT1 (Homo sapiens, UniProt P50750)
Assay: Cdk9/cyclinT1 kinase assay (IMAP or Alpha Screen protocol)
Text: Cdk9/cyclinT1 IMAP Protocol
Fluorescence polarization (FP) is used for detection.
Cdk9/cyclinT1 Alpha Screen Protocol

Chain of Cdk9/cyclinT1 (P50750 whole entry): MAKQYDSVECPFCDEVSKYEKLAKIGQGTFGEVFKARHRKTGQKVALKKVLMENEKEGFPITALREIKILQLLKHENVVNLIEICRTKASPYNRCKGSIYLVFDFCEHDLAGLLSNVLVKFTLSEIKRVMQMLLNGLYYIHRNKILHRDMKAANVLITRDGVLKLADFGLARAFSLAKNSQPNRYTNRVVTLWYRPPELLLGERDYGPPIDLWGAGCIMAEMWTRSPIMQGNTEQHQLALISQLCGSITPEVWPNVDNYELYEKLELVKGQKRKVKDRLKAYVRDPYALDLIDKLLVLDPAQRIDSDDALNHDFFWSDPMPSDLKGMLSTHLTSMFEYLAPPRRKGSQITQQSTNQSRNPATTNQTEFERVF
Chain of Cdk9/cyclinT1 (O60563 whole entry partner): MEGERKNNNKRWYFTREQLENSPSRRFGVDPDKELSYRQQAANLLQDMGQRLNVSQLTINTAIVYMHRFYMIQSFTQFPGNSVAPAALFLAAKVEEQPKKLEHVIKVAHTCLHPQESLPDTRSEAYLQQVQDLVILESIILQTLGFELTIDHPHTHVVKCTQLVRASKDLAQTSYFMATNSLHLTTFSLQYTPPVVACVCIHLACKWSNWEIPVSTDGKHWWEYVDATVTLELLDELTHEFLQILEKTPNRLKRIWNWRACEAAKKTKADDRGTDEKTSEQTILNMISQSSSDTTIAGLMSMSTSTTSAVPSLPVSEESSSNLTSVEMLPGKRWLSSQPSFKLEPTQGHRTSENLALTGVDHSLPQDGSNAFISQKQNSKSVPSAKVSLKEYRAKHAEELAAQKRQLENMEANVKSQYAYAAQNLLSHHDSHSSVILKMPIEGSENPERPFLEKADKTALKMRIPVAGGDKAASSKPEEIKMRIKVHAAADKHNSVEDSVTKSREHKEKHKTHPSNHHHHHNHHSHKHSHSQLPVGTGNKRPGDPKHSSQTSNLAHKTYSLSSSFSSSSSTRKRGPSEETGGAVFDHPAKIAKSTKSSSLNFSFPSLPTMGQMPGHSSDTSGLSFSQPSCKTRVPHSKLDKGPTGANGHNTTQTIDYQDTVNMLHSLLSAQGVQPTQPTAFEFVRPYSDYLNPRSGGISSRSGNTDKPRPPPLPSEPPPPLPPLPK

| SMILES | IC50 [nM] |
| --- | --- |
| CCS(=O)(=O)N1CCC[C@H](C(=O)Nc2cc(-c3cncc(NCC4CCOCC4)n3)c(C(F)(F)F)cn2)C1 [Example 66, (S)-1-Ethanesulfonyl-piperidine-3-carboxylic acid (4-{6-[(tetrahydro-pyran-4-ylmethyl)-amino]-pyrazin-2-yl}-5-trifluoromethyl-pyridin-2-yl)-amide] | 100 |
| CC(C)S(=O)(=O)N1CCC[C@H](C(=O)Nc2cc(-c3cncc(NCC4CCOCC4)n3)c(C(F)(F)F)cn2)C1 [Example 67, (S)-1-(Propane-2-sulfonyl)-piperidine-3-carboxylic acid (4-{6-[(tetrahydro-pyran-4-ylmethyl)-amino]-pyrazin-2-yl}-5-trifluoromethyl-pyridin-2-yl)-amide] | 133 |
| CN1CC(C(=O)Nc2cc(-c3cncc(NCC4CCOCC4)n3)c(Cl)cn2)CC1=O (stereo not drawn) [Example 68, 1-Methyl-5-oxo-pyrrolidine-3-carboxylic acid (5-chloro-4-{6-[(tetrahydro-pyran-4-ylmethyl)-amino]-pyrazin-2-yl}-pyridin-2-yl)-amide] | < 8 |
